This is an account of results in ChEMBL document CHEMBL1949599, “Three novel cyclic hexapeptides from Streptomyces alboflavus 313 and their antibacterial activity” (2012).

One may read the MIC as the smallest concentration in the dilution series that meets the test's criterion for growth inhibition. Low readings indicate greater potency, high ones weaker potency.

Molecules are shown by their SMILES. In brackets after ≈: the same amount, converted by molar mass. A value given as a limit tells only on which side of the number the result lay.

Holding throughout (assay type): functional
The test system of assay [1] is Bacillus subtilis. The assay is described as follows: Antibacterial activity against Bacillus subtilis CGMCC 1.88 after 24 hrs by micro-broth dilution method. The conditions noted are these: CGMCC 1.88, 24 h. For orientation: Dilution methods test growth across graded concentrations, often in twofold steps.
Assay [2] concerns Staphylococcus aureus. Put plainly: Antibacterial activity against methicillin-resistant Staphylococcus aureus after 24 hrs by micro-broth dilution method.
Assay [3] deals with Pseudomonas aeruginosa. Put plainly: Antibacterial activity against Pseudomonas aeruginosa CGMCC 1.2031 after 24 hrs by micro-broth dilution method. The note with it: CGMCC 1.2031, 24 h.
For assay [4], the system named is Staphylococcus aureus. Put plainly: Antibacterial activity against Staphylococcus aureus CGMCC 1.89 after 24 hrs by micro-broth dilution method. The conditions noted are these: CGMCC 1.89, 24 h.
The subject of assay [5] is Escherichia coli. Put plainly: Antibacterial activity against Escherichia coli CGMCC 1.1574 after 24 hrs by micro-broth dilution method. The conditions noted are these: CGMCC 1.1574, 24 h.
In assay [6] the test system is Bacillus cereus. Put plainly: Antibacterial activity against Bacillus cereus CGMCC 1.1846 after 24 hrs by micro-broth dilution method. The conditions noted are these: CGMCC 1.1846, 24 h.

For `CC(C)[C@@H]1NC(=O)[C@@H]2C[C@@]3(O)c4ccc(Cl)cc4N[C@H]3N2C(=O)[C@H]2CCCNN2C(=O)[C@@H](C)N(C)C(=O)[C@H]2CCCNN2C(=O)[C@@H]2CCCNN2C1=O`, the MIC in assay [1] was 12.5 µg/mL (≈ 16.5 µM); in assay [2], 6.25 µg/mL (≈ 8.25 µM); in assay [3], above 100 µg/mL; in assay [4] it was 6.25 µg/mL (≈ 8.25 µM); in assay [5] it was above 100 µg/mL; in assay [6], 12.5 µg/mL (≈ 16.5 µM).

For the compound `CC1(C)S[C@@H]2[C@H](NC(=O)[C@H](N)c3ccccc3)C(=O)N2[C@H]1C(=O)[O-].[Na+]` [AMPICILLIN SODIUM], the MIC in assay [1] is 1.56 µg/mL; in assay [2], above 100 µg/mL; in assay [3], above 100 µg/mL; in assay [4] it was 6.25 µg/mL; in assay [5], 3.13 µg/mL; in assay [6], 6.25 µg/mL.

As for `CC(C)[C@H]1NC(=O)[C@@H]2C[C@@]3(O)c4ccc(Cl)cc4N[C@H]3N2C(=O)[C@H]2CCCNN2C(=O)[C@@H](C)NC(=O)[C@H]2CCCNN2C(=O)[C@@H]2CCCNN2C1=O`, the minimal inhibitory concentration (MIC) in assay [1], in assay [2], in assay [3], in assay [4], in assay [5] and in assay [6] was above 100 µg/mL each time.

For the compound `COC1C=NN2C(=O)[C@H]3CCCNN3C(=O)[C@@H](C(C)C)NC(=O)[C@@H]3C[C@@]4(O)c5ccc(Cl)cc5N[C@H]4N3C(=O)[C@H]3CCCNN3C(=O)[C@H](C)N(C)C(=O)C2C1` (stereo not given in full), the MIC was 25 µg/mL (≈ 31.8 µM) in assay [1]; 25 µg/mL (≈ 31.8 µM) in assay [2]; above 100 µg/mL in assay [3]; 25 µg/mL (≈ 31.8 µM) in assay [4]; above 100 µg/mL in assay [5]; 25 µg/mL (≈ 31.8 µM) in assay [6].

In the case of `COC1=CC2C(=O)N(C)[C@@H](C)C(=O)N3NCCC[C@@H]3C(=O)N3[C@@H](C[C@@]4(O)c5ccc(Cl)cc5N[C@@H]34)C(=O)N[C@H](C(C)C)C(=O)N3NCCC[C@@H]3C(=O)N2N=C1` (stereo not given in full), the MIC in assay [1] is 3.13 µg/mL (≈ 4 µM); in assay [2], 1.56 µg/mL (≈ 1.99 µM); in assay [3], above 100 µg/mL; in assay [4] it was 1.56 µg/mL (≈ 1.99 µM); in assay [5], above 100 µg/mL; in assay [6], 3.13 µg/mL (≈ 4 µM).
